Read-outs that look alike come from different tables or passages of the source.
Target: CB1 (mutant) (Homo sapiens, UniProt P21554)
Assay: R-SAT functional receptor assay, CB1 (mutant, truncated after amino acid 417)
Type: cell-based
Conditions: R-SAT CB1; for pIC50 / IC50: receptor form (mutant or wild-type) not stated; for Emax / % Inhibition: receptor form not stated, relative to SR141716 (100%); for Emax: read-out: % Inhibition
[1] = Appendix A, read-out: pIC50 (converted)

Chain of CB1 (mutant) (P21554 1-417, change not shown): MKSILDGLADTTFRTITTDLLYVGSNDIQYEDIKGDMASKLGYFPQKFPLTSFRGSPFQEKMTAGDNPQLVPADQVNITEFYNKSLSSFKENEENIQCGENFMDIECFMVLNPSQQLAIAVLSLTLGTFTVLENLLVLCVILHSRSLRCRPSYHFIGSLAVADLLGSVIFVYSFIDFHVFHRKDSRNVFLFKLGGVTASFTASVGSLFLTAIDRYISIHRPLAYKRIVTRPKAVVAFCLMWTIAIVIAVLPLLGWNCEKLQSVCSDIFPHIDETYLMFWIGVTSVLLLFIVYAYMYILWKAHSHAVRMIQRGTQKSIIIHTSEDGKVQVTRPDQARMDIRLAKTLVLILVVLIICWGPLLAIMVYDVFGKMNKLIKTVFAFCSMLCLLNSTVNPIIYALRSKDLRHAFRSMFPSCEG

## CONC(=O)c1ccc2c(c1)N=C(c1ccc(Cl)cc1Cl)c1ccccc1S2
Appendix A
  pIC50: 1.0
  Emax: -27%

## Cc1cccnc1C1=Nc2cc(C(=O)NC3CCCC3)ccc2Sc2ccccc21
[1]
  IC50: 1000 nM
Appendix A
  Emax: 57%

## CCCCNC(=O)c1ccc2c(c1)N=C(c1ccc(Cl)cc1)c1ccc(F)cc1S2 [drawing 985]
[1]
  IC50: 25.1 nM
Appendix A
  Emax: 109%

## O=C(c1ccc2c(c1)N=C(c1ccc(F)cc1)c1ccccc1S2)N1CCCCC1 [drawing 1163]
Appendix A
  Emax: 90%
pIC50, Appendix A
  IC50: 39.8 nM

## CC(NC(=O)c1ccc2c(c1)N=C(c1cccc(Cl)c1)c1ccccc1S2)c1ccccc1 (stereo not drawn) [drawing 582]
[1]
  IC50: 50.1 nM
Appendix A
  Emax: 87%

## CCCNC(=O)c1ccc2c(c1)N=C(c1sccc1C)c1ccccc1S2 [drawing 927]
[1]
  IC50: 15.8 nM
Appendix A
  Emax: 99%

## O=C(NCc1cccs1)c1ccc2c(c1)N=C(c1cccc(F)c1)c1ccccc1S2 [drawing 593]
Appendix A
  pIC50: 8.5
  % Inhibition: 93%

## CCCCNC(=O)c1ccc2c(c1)N=C(c1cccc(Cl)c1)c1cc(F)ccc1S2 [drawing 829]
[1]
  IC50: 12.6 nM
Appendix A
  Emax: 105%

## CCCCNC(=O)c1ccc2c(c1)N=C(c1ccc(Br)cn1)c1ccccc1S2 [drawing 807]
[1]
  IC50: 10 nM
Appendix A
  Emax: 105%

## CCCC1=Nc2cc(C(=O)NCCOC)ccc2Sc2ccccc21
[1]
  IC50: 200 nM
Appendix A
  Emax: 107%

## C[C@@H]1CCC[C@H](C)N1NC(=O)c1ccc2c(c1)N=C(c1cccc(F)c1)c1ccccc1S2 [drawing 727]
[1]
  IC50: 7.94 nM
Appendix A
  Emax: 120%

## O=C(NCc1ccccc1Cl)c1ccc2c(c1)N=C(c1ccc(Cl)cc1)c1ccccc1S2 [drawing 1089]
Appendix A
  Emax: 95%
pIC50, Appendix A
  IC50: 31.6 nM

## O=C(NCCc1ccc(Cl)cc1)c1ccc2c(c1)N=C(c1ccc(F)cc1)c1ccccc1S2 [drawing 673]
[1]
  IC50: 6.31 nM
Appendix A
  Emax: 107%

## Cc1ccsc1C1=Nc2cc(C(=O)NN3CCCCC3)ccc2Sc2ccccc21 [drawing 1045]
[1]
  IC50: 31.6 nM
Appendix A
  Emax: 100%

## CCCNC(=O)c1ccc2c(c1)N=C(c1ncccc1C)c1ccccc1S2
[1]
  IC50: 501 nM
Appendix A
  Emax: 63%

## CON(C)C(=O)c1ccc2c(c1)N=C(c1ccc(Cl)c(Cl)c1)c1ccccc1S2
Appendix A
  Emax: 0%

## O=C(NCc1ccccc1Cl)c1ccc2c(c1)N=C(c1ccccc1)c1ccccc1S2 [drawing 594]
[1]
  IC50: 50.1 nM
Appendix A
  Emax: 86%

## CON(C)C(=O)c1ccc2c(c1)N=C(c1sccc1C)c1ccccc1S2
[1]
  IC50: 794 nM
Appendix A
  Emax: 42%

## CC(CNC(=O)c1ccc2c(c1)N=C(c1ccc(F)cc1)c1ccccc1S2)c1ccccc1 (stereo not drawn) [drawing 639]
Appendix A
  Emax: 98%
pIC50, Appendix A
  IC50: 5.01 nM

## CCCC1=Nc2cc(C(=O)NCCN(CC)CC)ccc2Sc2ccccc21
[1]
  IC50: 1580 nM
Appendix A
  Emax: 131%

## O=C(NCCc1cccc(Cl)c1)c1ccc2c(c1)N=C(c1ccc(Cl)cc1)c1ccccc1S2 [drawing 911]
[1]
  IC50: 15.8 nM
Appendix A
  Emax: 99%

## O=C(NCc1ccccc1)c1ccc2c(c1)N=C(c1ccccc1F)c1ccccc1S2 [drawing 1015]
[1]
  IC50: 25.1 nM
Appendix A
  Emax: 96%

## O=C(NN1CCCCCC1)c1ccc2c(c1)N=C(c1cccc(F)c1)c1ccccc1S2 [drawing 697]
Appendix A
  Emax: 106%
pIC50, Appendix A
  IC50: 7.94 nM

## CC(C)NC(=O)c1ccc2c(c1)N=C(c1ccccn1)c1ccccc1S2
[1]
  IC50: 794 nM
Appendix A
  Emax: 60%

## O=C(NN1CCCCCC1)c1ccc2c(c1)N=C(c1ccc(Cl)cc1Cl)c1ccccc1S2 [drawing 876]
[1]
  IC50: 200 nM
Appendix A
  Emax: 82%

## CC(C)CNC(=O)c1ccc2c(c1)N=C(c1ccc(Cl)s1)c1ccc(Cl)cc1S2 [drawing 983]
[1]
  IC50: 25.1 nM
Appendix A
  Emax: 110%

## O=C(NC1CCCC1)c1ccc2c(c1)N=C(c1ccc(Cl)cc1Cl)c1ccccc1S2
Appendix A
  Emax: 52%

## CCCC1=Nc2cc(C(=O)NCCCN(CC)CC)ccc2Sc2ccccc21
[1]
  IC50: 2510 nM
Appendix A
  Emax: 125%

## CCCCNC(=O)c1ccc2c(c1)N=C(c1ccccc1OC)c1ccccc1S2
[1]
  IC50: 251 nM
Appendix A
  Emax: 80%

## CCCCNC(=O)c1ccc2c(n1)N=C(c1ccccc1)c1ccccc1S2
[1]
  IC50: 12.6 nM
Appendix A
  Emax: 98%

## O=C(NCc1cccnc1)c1ccc2c(c1)N=C(c1ccc(F)cc1)c1ccccc1S2 [drawing 931]
[1]
  IC50: 15.8 nM
Appendix A
  Emax: 123%

## O=C(NCCc1cccnc1)c1ccc2c(c1)N=C(c1cccc(Cl)c1)c1ccccc1S2 [drawing 857]
[1]
  IC50: 12.6 nM
Appendix A
  Emax: 100%

## O=C(NCc1ccccc1Br)c1ccc2c(c1)N=C(c1ccccc1)c1ccccc1S2 [drawing 700]
[1]
  IC50: 79.4 nM
Appendix A
  Emax: 83%

## Cc1cccnc1C1=Nc2cc(C(=O)NCC(C)C)ccc2Sc2ccccc21
Appendix A
  Emax: 87%

## CCCC1=Nc2cc(C(=O)NCCCN3CCN(c4ccc(OC)cc4)CC3)ccc2Sc2ccccc21
[1]
  IC50: 2510 nM
Appendix A
  Emax: 79%

## CCCNC(=O)c1ccc2c(c1)N=C(c1cccc(Cl)c1)c1ccccc1S2 [drawing 641]
[1]
  IC50: 5.01 nM
Appendix A
  Emax: 107%

## CCCCNC(=O)c1ccc2c(c1)N=C(c1ccc(Cl)cn1)c1ccccc1S2 [drawing 813]
[1]
  IC50: 10 nM
Appendix A
  Emax: 106%

## CCCCNC(=O)c1ccc2c(c1)N=C(c1cccc(Cl)c1)c1ccccc1S2 [drawing 737]
[1]
  IC50: 7.94 nM
Appendix A
  Emax: 98%

## O=C(NC1CCCCC1)c1ccc2c(c1)N=C(c1ccccc1Cl)c1ccccc1S2
[1]
  IC50: 251 nM
Appendix A
  Emax: 67%

## CC(C)NC(=O)c1ccc2c(c1)N=C(c1ccc(Cl)cc1)c1ccccc1S2 [drawing 576]
[1]
  IC50: 50.1 nM
Appendix A
  Emax: 98%

## CCCCNS(=O)(=O)c1ccc2c(c1)N=C(c1ccc(Cl)cc1)c1ccccc1S2 [drawing 875]
[1]
  IC50: 15.8 nM
Appendix A
  Emax: 106%

## O=C(NC1CCCC1)c1ccc2c(c1)N=C(c1ccc(Cl)s1)c1ccccc1S2 [drawing 1139]
[1]
  IC50: 39.8 nM
Appendix A
  Emax: 86%

## CC(C)NC(=O)c1ccc2c(c1)N=C(c1ccc(Br)cc1)c1ccccc1S2
Appendix A
  Emax: 83%

## CONC(=O)c1ccc2c(c1)N=C(c1cccc(Cl)c1)c1ccccc1S2
[1]
  IC50: 398 nM
Appendix A
  Emax: 89%

## O=C(NCCc1ccccn1)c1ccc2c(c1)N=C(c1cccc(Cl)c1)c1ccccc1S2 [drawing 999]
[1]
  IC50: 25.1 nM
Appendix A
  % Inhibition: 91%

## CCOCCNC(=O)c1ccc2c(c1)N=C(c1ccc(F)cc1)c1ccccc1S2 [drawing 596]
[1]
  IC50: 50.1 nM
Appendix A
  Emax: 94%

## O=C(NCc1cccnc1)c1ccc2c(c1)N=C(c1ccc(Cl)c(Cl)c1)c1ccccc1S2 [drawing 687]
Appendix A
  pIC50: 8.2
  % Inhibition: 114%

## O=C(NC1CCCCC1)c1ccc2c(c1)N=C(c1ccc(F)cc1)c1ccccc1S2 [drawing 951]
[1]
  IC50: 20 nM
Appendix A
  % Inhibition: 108%

## CCN(CCNC(=O)c1ccc2c(c1)N=C(c1cccc(Cl)c1)c1ccccc1S2)c1ccccc1 [drawing 713]
Appendix A
  Emax: 97%
pIC50, Appendix A
  IC50: 7.94 nM

## CCCCNC(=O)c1ccc2c(c1)N=C(c1ncccc1C)c1ccccc1S2
Appendix A
  Emax: 85%

## Cc1cccnc1C1=Nc2cc(C(=O)NC3CCCCC3)ccc2Sc2ccccc21
[1]
  IC50: 501 nM
Appendix A
  Emax: 61%

## O=C(NCc1ccncc1)c1ccc2c(c1)N=C(N1CCCCC1)c1ccccc1S2
[1]
  IC50: 501 nM
Appendix A
  Emax: 81%

## O=C(NCCc1cccc(Cl)c1)c1ccc2c(c1)N=C(N1CCCCC1)c1ccccc1S2 [drawing 973]
[1]
  IC50: 20 nM
Appendix A
  Emax: 108%

## CCONC(=O)c1ccc2c(c1)N=C(c1cccc(Cl)c1)c1ccccc1S2
[1]
  IC50: 79.4 nM
Appendix A
  Emax: 90%

## CCCCN(C)C(=O)c1ccc2c(c1)N=C(c1ccc(OC)cc1)c1ccccc1S2
[1]
  IC50: 100 nM
Appendix A
  Emax: 97%

## O=C(NCc1ccco1)c1ccc2c(c1)N=C(c1cccc(Cl)c1)c1ccccc1S2 [drawing 583]
[1]
  IC50: 3.16 nM
Appendix A
  Emax: 100%

## CCCCNC(=O)c1ccc2c(c1)N=C(c1ccc(Cl)cc1)c1sccc1S2 [drawing 657]
[1]
  IC50: 6.31 nM
Appendix A
  Emax: 122%

## CCCNC(=O)c1ccc2c(c1)N=C(c1ccccc1F)c1ccccc1S2
[1]
  IC50: 39.8 nM
Appendix A
  Emax: 97%

## CCCC1=Nc2cc(C(=O)N3CCN(C(=O)c4ccco4)CC3)ccc2Sc2ccccc21
[1]
  IC50: 2510 nM
Appendix A
  Emax: 88%

## O=C(NCCc1ccccc1)c1ccc2c(c1)N=C(N1CCCCC1)c1ccccc1S2 [drawing 1019]
[1]
  IC50: 25.1 nM
Appendix A
  Emax: 106%

## CCCCNC(=O)c1ccc2c(c1)N=C(CCC)c1ccccc1S2
[1]
  IC50: 25.1 nM
Appendix A
  Emax: 111%

## O=C(NCc1ccc(Cl)cc1Cl)c1ccc2c(c1)N=C(c1ccccc1)c1ccccc1S2 [drawing 1167]
[1]
  IC50: 39.8 nM
Appendix A
  Emax: 91%

## CC(NC(=O)c1ccc2c(c1)N=C(C1CCCCC1)c1ccccc1S2)c1ccccc1 (stereo not drawn) [drawing 634]
[1]
  IC50: 63.1 nM
Appendix A
  % Inhibition: 87%

## CC(C)CNC(=O)c1ccc2c(c1)N=C(c1ccccc1F)c1ccccc1S2 [drawing 627]
[1]
  IC50: 5.01 nM
Appendix A
  Emax: 118%

## O=C(NCCC(F)(F)F)c1ccc2c(c1)N=C(c1ccc(Cl)cc1)c1ccccc1S2 [drawing 705]
Appendix A
  Emax: 91%
pIC50, Appendix A
  IC50: 7.94 nM

## O=C(NCCCC(F)(F)F)c1ccc2c(c1)N=C(c1ccc(Cl)s1)c1ccccc1S2 [drawing 559]
[1]
  IC50: 2.51 nM
Appendix A
  Emax: 103%

## CCCC1=Nc2cc(C(=O)NC(C)C34CC5CC(CC(C5)C3)C4)ccc2Sc2ccccc21 (stereo not drawn)
[1]
  IC50: 79.4 nM
Appendix A
  Emax: 112%

## CCCCNC(=O)c1ccc2c(c1)N=C(c1ccc(Cl)s1)c1cc(Cl)ccc1S2 [drawing 995]
[1]
  IC50: 25.1 nM
Appendix A
  Emax: 107%

## O=C(NN1CCCCCC1)c1ccc2c(c1)N=C(c1ccc(Cl)cc1F)c1ccccc1S2 [drawing 867]
[1]
  IC50: 15.8 nM
Appendix A
  Emax: 102%

## CCCC1=Nc2cc(C(=O)NCCCc3ccccc3)ccc2Sc2ccccc21 [drawing 763]
[1]
  IC50: 10 nM
Appendix A
  Emax: 104%

## O=C(NN1CCCCC1)c1ccc2c(c1)N=C(C1CCCCC1)c1ccccc1S2 [drawing 861]
Appendix A
  % Inhibition: 100%

## Cc1cccc(C2=Nc3cc(C(=O)NCC(C)C)ccc3Sc3ccccc32)n1 [drawing 809]
[1]
  IC50: 10 nM
Appendix A
  Emax: 82%

Source: patent publication US20080090805A1, “CB-1 MODULATING COMPOUNDS AND THEIR USE” (ACADIA PHARMACEUTICALS INC., priority 2005, published 2008)
